Reference: patent US20240325420A1, “COMPOSITION INCLUDING PAEONIFLORIN FOR PREVENTION OR TREATMENT OF CACHEXIA AND MUSCLE LOSS” (CHUNG ANG UNIVERSITY INDUSTRY ACADEMIC COOPERATION …, priority 2021, published 2024)

What was measured:
Type in all cases: in vivo
[1] = test system: C57BL/6 mice with cisplatin-induced cachexia; assay: Body weight and muscle mass in cisplatin-treated C57BL/6 mice
Method: The animal experiments were performed in accordance with internationally accepted principles for laboratory animal use and care, and the corresponding study protocol was reviewed and approved by the Institutional Animal Care and Use Committee (IACUC) at Chung-Ang University (approval #2021-00022). Four-week-old female C57BL/6 mice and Balb/c mice were purchased from Raonbio Inc. (Yongin, Korea) and were provided with standard laboratory diet and water ad libitum in the animal facility of Chung-Ang University. After a week of acclimation, the mice were intraperitoneally injected three times with 3 mg/kg/day cisplatin, suspended in 200 μL saline, every other day. Control group mice (sham-treated mice) were injected with the same volume of saline under the same regimen. The cisplatin-treated groups were orally administered paeoniflroin (Pae) or megestrol acetate (MA), suspended in 200 μL distilled water, every day until euthanasia.
Specifically, the cisplatin-treated groups were orally administered paeoniflorin (prepared in Example 1) at a dose of 5 (Pae 5 group), 10 (Pae 10 group), or 20 (Pae 20 group) mg/kg once daily for 9 days. The comparative drug-treated group was orally administered megestrol acetate (MA), which is currently most commonly prescribed for cancer cachexia patients in clinical practice, at a dose of 160 mg/kg (=800 mg [daily human dose]/60 kg [average human body weight]×12 [dose equivalent factor based on human:mouse body surface area ratio], once daily for 9 days.
(§1) In addition, cisplatin-treated mice orally administered the same volume of distilled water were designated as the vehicle group. After completion of drug treatment, the mice of each group were euthanized with 10 mg/kg alfaxalone (Jurox, Rutherford, Australia). Blood was collected in test tubes containing EDTA, and centrifuged, and plasma was separated therefrom. Gastrocnemius and quadriceps skeletal muscles were dissected and weighed. The skeletal muscles were rapidly frozen in liquid nitrogen to be used for RT-qPCR, Western blotting, and ELISA.

[2] = test system: muscle-specific ubiquitin E3 ligases (MuRF1 and MAFbx); assay: Protein levels of MuRF1 and MAFbx in gastrocnemius muscle by Western blotting; details: C57BL/6 mice, cisplatin-treated, Pae 10 and Pae 20 vs vehicle
Method: as §1
(§2) Proteins were extracted from skeletal muscle using NucleoSpin kits (Macherey-Nagel, Duren, Germany) and quantified using the BCA Protein Assay Kit (Pierce, Rockford, IL, USA). Anti-β-actin antibody was used to quantify protein loading. For myosin protein (MyHC, myosin heavy chain), myogenic factor (MyoD), and NF-κB signaling system (p-IKK, IKK, p-IκB, and IκB), protein levels in the gastrocnemius muscle were measured by Western blotting. Band intensities were quantified using ImageJ software (NIH, Bethesda, MD, USA).
(§3) In order to measure the mRNA and protein levels of major factors involved in muscle loss, muscle contraction, and muscle differentiation, the mRNA and protein levels in the skeletal muscle tissues from C57BL/6 mice were measured by real-time PCR and Western blotting.

[3] = test system: myosin heavy chain (MyHC) and myoblast determination protein (MyoD); assay: Protein levels of MyHC and MyoD in gastrocnemius muscle by Western blotting; details: C57BL/6 mice, cisplatin-treated, Pae 10 and Pae 20 vs vehicle
Method: as §1, §2, §3

NF-κB = assay: Target DNA binding activity of NF-κB in skeletal muscle (TransAM NF-κB ELISA); details: gastrocnemius muscle; C57BL/6 mice; cisplatin-treated; Pae 10 and Pae 20; FIG. 12C
Method: Nuclear and cytoplasmic lysates were prepared from the skeletal muscle using a nuclear extraction kit (Active Motif, Carlsbad, CA, USA). The protein concentration of both lysates was measured using the BCA Protein Assay Kit (Pierce). Anti-NF-κB p65 was used as the primary antibody, and 10 μg of protein per lysate was analyzed by Western blotting. TBP (TATA box-binding protein) and β-actin were as controls for the nuclear and cytosolic lysates, respectively. The target DNA binding activity of NF-κB was measured using the TransAM NF-κB ELISA kit (Active Motif, USA).

GDF-15 = assay: Plasma GDF-15 by ELISA in mice with cisplatin-induced cachexia; details: C57B/6 mice; cisplatin plus paeoniflorin-treated group vs cisplatin-treated group; FIG. 13B
Method: as §1
The levels of TNF-α and interleukin (IL)-6 were measured using respective mouse ELISA kits (Invitrogen, Waltham, MA, USA). IL-1β and GDF-15 levels were measured using respective Quantikine ELISA kits (R&D Systems, Minneapolis, MN, USA).
The protein concentration of GDF-15 in the plasma was analyzed by ELISA.

[4] = test system: C57BL/6 mice with Lewis lung carcinoma-induced cachexia; assay: Muscle strength and endurance in C57BL/6 mice with Lewis lung carcinoma-induced cachexia
Method: As the experimental animals, 4-week-old female C57BL/6 mice and Balb/c mice weighing 18 g to 20 g were purchased from Raon Bio (Yongin, Korea), acclimatized in the laboratory animal facility for one week, and then used in the experiment. During the experiment period, the animals were provided with solid feed and water ad libitum, and the breeding room was maintained at a temperature of 20° C. to 24° C. and a relative humidity of 55% to 65% with a 12-hr light/12-hr dark cycle.
Mice were divided into a control group and a cachexia-induced group, and the cachexia-induced group was subdivided into a tumor cell-injected group, a tumor cell-injected and existing drug (MA, megestrol acetate)-administered group, and tumor cell-injected and paeoniflorin (Pae)-administered groups. Each group consisted of 10 animals.
Each mouse of the control group was injected subcutaneously with 100 μL of saline solution. For the cachexia-induced groups, Lewis lung carcinoma cells (C57BL/6 mice) or colon-26 carcinoma cells (Balb/c mice) were injected subcutaneously into the flank area of each mouse at a dose of 10^6 cells/100 μL/mouse. […] After completion of 9 days of administration, the muscle strength of the mice was measured using a grip strength test device (Bioseb, USA), and the endurance of the mice was measured using a treadmill device (Columbus Instrument, USA).

**Q.** What does the source list for `C[C@@]12C[C@@]3(O)O[C@@H](O1)[C@]1(COC(=O)c4ccccc4)[C@H]3C[C@@]12O[C@@H]1O[C@H](CO)[C@@H](O)[C@H](O)[C@H]1O` [paeoniflorin]?
**A.** cisplatin-induced weight loss (body weight) ([1]; cisplatin 3 mg/kg/day i.p. three times, paeoniflorin 10 or 20 mg/kg orally daily for 9 days, vs vehicle, FIG. 1A): attenuated; weight of gastrocnemius muscle (skeletal muscle mass) ([1]; cisplatin-treated, paeoniflorin 10 or 20 mg/kg orally daily, FIG. 1B): restored; weight of quadriceps muscle (skeletal muscle mass) ([1]; cisplatin-treated, paeoniflorin 10 or 20 mg/kg orally daily, FIG. 1C): restored; MuRF1 protein level ([2]; FIG. 6A): decreased; MAFbx protein level ([2]; FIG. 6B): decreased; MyHC protein level ([3]; FIGS. 6C, 7A): increased; MyoD protein level ([3]; FIGS. 6D, 7B): increased; target DNA binding activity of NF-κB (NF-κB): decreased; plasma concentration of GDF-15 (GDF-15): significantly decreased; muscle strength ([4]; C57BL/6 mice, Lewis lung carcinoma-injected, paeoniflorin orally for 9 days, FIG. 16A): significantly increased; endurance ([4]; C57BL/6 mice, Lewis lung carcinoma-injected, paeoniflorin orally for 9 days, FIG. 16B): significantly increased; effect on muscle function compared with megestrol acetate (MA) ([4]; Lewis lung carcinoma C57BL/6 mice, paeoniflorin 10 to 20 mg/kg/day vs megestrol acetate 160 mg/kg/day): better effect
